Measured values from article PMC12196007 (Molecules, 2025).
Several values for one entry are separate records, joined by “and”; a condition that tells them apart may be missing. Equal values may be shown once. Read-outs that look alike come from different tables or passages of the source.

Assays:
[1] = In vivo pharmacokinetic study, oral gavage; parameters: species or system SD rats
Protocol: The analysis was performed on a Q Exactive™ hybrid quadrupole-Orbitrap™ mass spectrometer (Thermo Fisher Scientific, USA) with the following parameters: Chromatographic separation was achieved by Agilent ZORBAX SB-C18 column (150 mm × 4.6 mm, 5 μm) with a mobile phase of acetonitrile and 0.1% formic acid aqueous solution (48:52, v/v) at a flow rate of 1 mL·min^−1 while maintaining the column temperature at 30 °C. The mass spectrometer operated in positive ion mode with an electrospray ionization (ESI) source, employing multiple reaction monitoring (MRM) for detection. Key ionization parameters included a capillary voltage of 3.0 kV and nitrogen as the collision gas.
Twelve SD rats (220 ± 20 g, equal numbers of males and females) were fasted for 24 h with free access to water and randomly allocated into two groups (n = 6 per group). […] Blood samples (~0.5 mL) were collected from the jugular vein into anticoagulant tubes at 0, 0.25, 0.5, 1, 2, 4, 6, 8, 12, and 24 h after administration. After centrifugation to collect the supernatant, samples were spiked with 20 μL of a 100 μg·mL^−1 internal standard solution, extracted twice with ethyl acetate for protein precipitation, and the combined organic phases were evaporated using a refrigerated vacuum concentrator.

Caco-2 cells = test: Cellular uptake in Caco-2 cell monolayer; assay type: in vitro ADME, human; conditions: Caco-2, 200 μg·mL−1 CUR, 20 min
Protocol: Caco-2 cells were seeded into the donor chamber of Transwell inserts at a density of 1 × 10^5 cell·mL^−1 and cultured in complete medium. Transepithelial electrical resistance (TEER) was measured on the 0th, 3rd, 5th, 7th, 10th, and 15th days to monitor monolayer integrity. A TEER value exceeding 700 Ω·cm² was established as the threshold for successful formation of the human intestinal epithelial barrier model. Following model validation, the cell surface was equilibrated with PBS for 30 min and rinsed to remove debris. […] Cellular uptake was terminated by rapid washing with ice-cold PBS to remove surface-bound drug and nonviable cells. […] Cellular uptake was calculated according to Equation (4).
The established Caco-2 cell monolayer model imitating human intestinal epithelium was equilibrated in pH 7.4 PBS at 37 °C within a CO2 incubator for 30 min. After removal of PBS, the cell surface was rinsed three times. […] The uptake process was terminated by ice-cold PBS, and residual solutions were removed by washing. Cells were then scraped into centrifuge tubes, sonicated, and quantified for uptake measurements.

[2] = cited from earlier work
[3] = Stability of CUR sample solutions at room temperature (HPLC method validation); assay type: physicochemical; conditions: 0-20 h
Protocol: 2.4 Precision and Stability […]
was diluted to three concentration levels: low (1 μg·mL-1), medium (10 μg·mL-1), and […]
content was measured by HPLC in triplicate to assess intraday precision. The same samples were analyzed once daily for five consecutive days to assess interday […]
temperature. Samples were collected at 0, 4, 8, 12, and 20 hours and analyzed by […]
for low, medium, and high concentrations, respectively. The interday RSD values were 1.97%, 2.00%, and 1.94%, indicating good method precision. Stability results […]
temperature for up to 20 hours. […]

[4] = In vitro drug release (dialysis bag, PBS); assay type: physicochemical
Protocol: The release media were designed to simulate physiological conditions of the human gastrointestinal tract: pH 2.0 (simulated gastric fluid), pH 6.8 (simulated intestinal fluid), and pH 7.4 (to mimic the alkaline colonic terminus). […] Aliquots (0.5 mL) were collected at predetermined intervals (0.5, 1, 2, 4, 6, 8, 12, and 24 h), with the release medium replenished immediately after each sampling to maintain sink conditions. The experiment was repeated three times. The drug release was quantified using a validated HPLC method. Cumulative release percentages were plotted against time, and release kinetics were analyzed using four models: zero-order kinetics, first-order kinetics, Higuchi equation, and Weibull distribution function. Key parameters, including T50 (time required for 50% drug dissolution) and Td (time required for 63.2% drug dissolution), were calculated to evaluate pH-dependent release profiles.

[5] = In situ single-pass intestinal perfusion; assay type: in vivo, Sprague–Dawley (SD) rats; conditions: for Papp: both sexes, Sprague-Dawley, rat, other: in situ single-pass intestinal perfusion, read-out: Peff (effective permeability coefficient)
Protocol: The rats were anesthetized and secured in a supine position on a surgical platform maintained at 37 °C. […] A 10 cm intestinal segment was isolated, and incisions were made at both ends. Silicone tubes were inserted into the incisions and ligated. […] Subsequently, the test sample was perfused through the intestinal loop. […] The collected samples were centrifuged, and the supernatant was mixed with methanol to precipitate proteins. After a second centrifugation, the resulting supernatant was analyzed by HPLC.

[6] = 2 h incubation of CUR solutions with intestinal segments (residual CUR); assay type: in vitro ADME, rats
[7] = both sexes, Sprague-Dawley, rat, plasma, po, 50 mg/kg

What does the source list for COc1cc(/C=C/C(=O)CC(=O)/C=C/c2ccc(O)c(OC)c2)ccc1O [CUR, Curcumin]?
AUC(0-inf) [1, 7]: 144 ± 25.4 ng·h/mL; AUC(0-t) [1, 7]: 106 ± 21.8 ng·h/mL; Cmax [1, 7]: 64.9 ± 12 ng/mL; Tmax [1, 7]: 1 h; half-life [1, 7]: 3.97 ± 1.48 h; MRT last ([1]; both sexes, Sprague-Dawley, rat, plasma, po, 50 mg/kg, read-out: MRT0-t): 2.35 ± 0.67 h; MRT inf ([1]; both sexes, Sprague-Dawley, rat, plasma, po, 50 mg/kg, read-out: MRT0-∞): 5.13 ± 1.36 h; Time within which almost completely eliminated ([1]; rats, oral, 50 mg·kg−1): ≤ 4 h; Drug Intake, mean (x¯) (Caco-2 cells; n = 3): 43.82 ± 1.74 µg/mg; Drug Intake (single replicates) (Caco-2 cells; per mg protein): 42.03 µg/mg and 44.28 µg/mg and 45.46 µg/mg; Plasma concentrations as share of the administered dose (oral bioavailability) [2]: ~1%; Stability: RSD of CUR concentration ([3]; CUR solution for intestinal mucus penetration study, 10 μg·mL-1, room temperature): 0.28%; Stability: RSD of CUR concentration ([3]; CUR solution for release studies, 50 μg·mL-1, room temperature): 0.63%; Cumulative release of CUR at 4 h ([4]; 4 h): ~80%; Cumulative release rate at 24 h ([4]; pH 2.0, 24 h): 88.89%; Cumulative release rate at 24 h ([4]; pH 6.8, 24 h): 90.17%; Cumulative release rate at 24 h ([4]; pH 7.4, 24 h): 86.64%; Papp ([5]; colon): 8.3 ± 0.1 ×10⁻⁶ cm/s; Papp ([5]; duodenum): 27.2 ± 0.5 ×10⁻⁶ cm/s; Papp ([5]; ileum): 23.3 ± 1.1 ×10⁻⁶ cm/s; Papp ([5]; jejunum): 26.1 ± 3.7 ×10⁻⁶ cm/s; Ka (absorption rate constant) ([5]; colon): 0.29 ± 0.0095 min⁻¹; Remaining dosage ([5]; colon, 15 min): 97.47 ± 0.83%; Remaining dosage ([5]; colon, 30 min): 92.6 ± 1.04%; Remaining dosage ([5]; colon, 45 min): 87.97 ± 1.07%; Remaining dosage ([5]; colon, 60 min): 79.51 ± 3.48%; Remaining dosage ([5]; colon, 75 min): 78.03 ± 0.99%; Remaining dosage ([5]; colon, 90 min): 73.23 ± 0.45%; Remaining dosage ([5]; colon, 105 min): 70.98 ± 0.98%; Remaining dosage ([5]; colon, 120 min): 66.55 ± 1.07%; Ka (absorption rate constant) ([5]; duodenum): 0.52 ± 0.0048 min⁻¹; Remaining dosage ([5]; duodenum, 15 min): 93.61 ± 0.59%; Remaining dosage ([5]; duodenum, 30 min): 89.22 ± 1.18%; Remaining dosage ([5]; duodenum, 45 min): 79.11 ± 0.58%; Remaining dosage ([5]; duodenum, 60 min): 69.18 ± 1.92%; Remaining dosage ([5]; duodenum, 75 min): 61.93 ± 1.54%; Remaining dosage ([5]; duodenum, 90 min): 54.95 ± 0.33%; Remaining dosage ([5]; duodenum, 105 min): 45.36 ± 1.72%; Remaining dosage ([5]; duodenum, 120 min): 42.13 ± 0.88%; Ka (absorption rate constant) ([5]; ileum): 0.47 ± 0.0208 min⁻¹; Remaining dosage ([5]; ileum, 15 min): 93.68 ± 0.37%; Remaining dosage ([5]; ileum, 30 min): 89.84 ± 0.89%; Remaining dosage ([5]; ileum, 45 min): 82.04 ± 1.06%; Remaining dosage ([5]; ileum, 60 min): 72.17 ± 1.08%; Remaining dosage ([5]; ileum, 75 min): 64.11 ± 1.25%; Remaining dosage ([5]; ileum, 105 min): 51.48 ± 1.18%; Remaining dosage ([5]; ileum, 120 min): 45.11 ± 3.27%; Ka (absorption rate constant) ([5]; jejunum): 0.47 ± 0.0088 min⁻¹; Remaining dosage ([5]; jejunum, 15 min): 94.43 ± 2.05%; Remaining dosage ([5]; jejunum, 30 min): 90.52 ± 0.80%; Remaining dosage ([5]; jejunum, 45 min): 87.97 ± 0.43%; Remaining dosage ([5]; jejunum, 60 min): 77.07 ± 0.97%; Remaining dosage ([5]; jejunum, 75 min): 70.44 ± 0.82%; Remaining dosage ([5]; jejunum, 90 min): 62.99 ± 0.92%; Remaining dosage ([5]; jejunum, 105 min): 54.99 ± 0.74%; Remaining dosage ([5]; jejunum, 120 min): 46.26 ± 0.94%; Residual CUR percentage ([6]; colonic segment): 92.90 ± 0.96%; Residual CUR percentage ([6]; duodenal segment): 99.63 ± 0.34%; Residual CUR percentage ([6]; ileal segment): 94.41 ± 1.57%; Residual CUR percentage ([6]; jejunal segment): 95.63 ± 0.47%
